What follows are compounds tested against T1, IRAK-4 (Homo sapiens, UniProt Q9NWZ3) (assay: IRAK-4 activity inhibition assay (Caliper)). Settings: 3.5 nM IRAK4, 37 μM ATP, 1.5 μM Peptide 8, 28° C. 40 minutes.
T1 sequence (Q9NWZ3 1-460): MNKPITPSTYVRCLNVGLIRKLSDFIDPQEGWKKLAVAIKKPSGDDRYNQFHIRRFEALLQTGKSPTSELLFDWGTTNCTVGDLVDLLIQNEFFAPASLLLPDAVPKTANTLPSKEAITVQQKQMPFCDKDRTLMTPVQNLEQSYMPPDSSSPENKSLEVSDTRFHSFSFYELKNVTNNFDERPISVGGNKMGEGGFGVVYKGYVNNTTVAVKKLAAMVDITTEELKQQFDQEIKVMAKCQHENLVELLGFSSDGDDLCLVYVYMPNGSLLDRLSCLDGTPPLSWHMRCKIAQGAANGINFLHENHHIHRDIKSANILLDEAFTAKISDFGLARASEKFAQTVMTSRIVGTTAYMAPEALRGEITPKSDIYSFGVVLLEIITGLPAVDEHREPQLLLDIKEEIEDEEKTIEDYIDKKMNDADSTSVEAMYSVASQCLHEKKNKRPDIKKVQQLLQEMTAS
Assay type: biochemical
Method: A 1× kinase base buffer was prepared from 50 mM HEPES, pH 7.5 and 0.0015% Brij-35. A stop buffer was prepared from 100 mM HEPES, pH 7.5, 0.015% Brij-35, 0.2% Coating Reagent #3, and 50 mM EDTA.
Test compound was diluted to 50× of the final desired highest inhibitor concentration in reaction by 100% DMSO. 100 ul of this compound dilution was transferred to a well in a 96-well plate.
Test compound was serially diluted by transferring 30 μl to 60 μl of 100% DMSO in the next well and so forth for a total of 10 concentrations. 100 μl of 100% DMSO was added to two empty wells for no compound control and no enzyme control in the same 96-well plate.
A new 96-well plate was marked as intermediate plate. 5 μl of compound serial dilution was transferred from source plate to the corresponding wells of the intermediate plate. 45 μl of 1× kinase base buffer (KB buffer) was added to each well of the intermediate plate. The intermediate plate was placed for 10 min on a shaker.
5 μl of each well was transferred from the 96-well intermediate plate to a 384-well plate in duplicates. For example, A1 of the 96-well plate is transferred to A1 and A2 of the 384-well plate. A2 of the 96-well plate is transferred to A3 and A4 of the 384-well plate, and so on.
IRAK4 and DTT in 1× kinase base buffer was added. The 2.5× enzyme mix contained 8.8 nM IRAK4 and 5 mM DTT.
Peptide 8, ATP, MgCl2 and MnCl2 were added in the 1× kinase base buffer. The 2.5× peptide mix contained 3.75 μM peptide 8, 92.5 μM ATP, 12.5 mM MgCl2 and 2.5 mM MnCl2.
Assay plate already contained 5 μl of compound in 10% DMSO. Added 10 μl of 2.5× enzyme solution to each well of the 384-well assay plate, except no enzyme control wells. The final concentration of IRAK4 in reaction was 3.5 nM. Added 10 μl of 1× kinase base buffer to no enzyme control wells in the assay plate. Incubated at room temperature for 10 min.
Added 10 μl of 2.5× peptide solution to each well of the 384-well assay plate. The final concentration of Peptide 8 and ATP was 1.5 μM and 37 μM, respectively. Incubated at 28° C. for 40 minutes. Added 25 μl of stop buffer to stop reaction. Collected data on Caliper.
Copied conversion % data from Caliper program. Converted conversion % values to percent inhibition values. Percent inhibition=(max−conversion %)/(max−min)*100, where “max” means the conversion % of DMSO control and “min” means the conversion % of no enzyme control.

| IC50 [µM] | Compound |
| --- | --- |
| ≤ 5 | CN(C)[C@H]1CC[C@H](Oc2ccnc3sc4c(c23)CCC4)CC1 [Compound I-1] |
| ≤ 5 | c1cc(O[C@H]2CC[C@H](N3CCOCC3)CC2)c2c3c(sc2n1)CCC3 [Compound I-3] |
| ≤ 5 | CN(C)[C@H]1CC[C@H](Nc2ccnc3sc4c(c23)CCC4)CC1 [Compound I-4, 1-N,1-N-dimethyl-4-N-[7-thia-9-azatricyclo[6.4.0.0^[2,6]]dodeca-1(12),2(6),8,10-tetraen-12-yl]cyclohexane-1,4-diamine] |

Continued, compound first:

| Compound | IC50 [µM] |
| --- | --- |
| c1cc(N[C@H]2CC[C@H](N3CCOCC3)CC2)c2c3c(sc2n1)CCC3 [Compound I-2] | ≤ 5 |
| N[C@H]1CC[C@H](Nc2ccnc3sc4c(c23)CCC4)CC1 [Compound I-205] | ≤ 5 |
| CN[C@H]1CC[C@H](Nc2ccnc3sc4c(c23)CCC4)CC1 [Compound I-206, 1-N-methyl-4-N-[7-thia-9-azatricyclo[6.4.0.0[2,6]]dodeca-1(12),2(6),8,10-tetraen-12-yl]cyclohexane-1,4-diamine] | ≤ 5 |
| CN(CC(=O)N1CCCC1)[C@H]1CC[C@H](Nc2ccnc3sc4c(c23)CCC4)CC1 [Compound I-207, 2-[methyl[4-([7-thia-9-azatricyclo[6.4.0.0[2,6]]dodeca-1(8),2(6),9,11-tetraen-12yl]amino)cyclohexyl]amino]-1-(pyrrolidin-1-yl)ethan-1-one] | ≤ 5 |
| Cn1cc(Nc2cc(N[C@H]3CC[C@H](N4CCOCC4)CC3)c3c4c(sc3n2)CCC4)cn1 [Compound I-208, N2-(1-methyl-1H-pyrazol-4-yl)-N4-((1r,4r)-4-morpholinocyclohexyl)-6,7-dihydro-5H-cyclopenta[4,5]thieno[2,3-b]pyridine-2,4-diamine] | 20 to 50 |
